From ChEMBL document CHEMBL5380800, “Discovery of Small-Molecule Autophagy Inhibitors by Disrupting the Protein-Protein Interactions Involving Autophagy-Related 5” (J Med Chem, 2023)
The source made the active and inactive calls. The calls are words filed in the database; no cut-off is given here.

Experiments:
[1] = Inhibition of ATG5-ATG16L1 (unknown origin) protein protein interaction expressed in Escherichia coli BL21 (DE3) by HTRF method; parameters: species or system Homo sapiens
[2] = Inhibition of ATG5-TECAIR (unknown origin) protein protein interaction expressed in Escherichia coli BL21 (DE3) by HTRF method; parameters: species or system Homo sapiens
[3] = system: COS-7; assay: Inhibition of autophagy in African green monkey COS-7 cells at 20 uM by flow cytometry analysis relative to control; format: functional; conditions: Chlorocebus aethiops
[4] = system: COS-7; assay: Inhibition of autophagy in African green monkey COS-7 cells assessed as effect on LC3 level at upto 40 uM by flow cytometry analysis; format: functional, cell-based; conditions: Chlorocebus aethiops

Compound	IC50 [1]	IC50 [2]	inhibition at 20 µM [3] [%]	IC50 ([2]; read-out: IC50) [µM]	IC50 ([1]; read-out: IC50) [µM]	inhibition [4]
COC(=O)c1ccc(CN2C(=O)/C(=C/c3ccc(-c4ccc([N+](=O)[O-])cc4)o3)C=C2c2ccccc2)cc1	Not Active	Not Active	59.8			
NC(=O)c1cccc(-c2ccc(/C=C3\C=C(c4ccccc4)N(Cc4ccc(C(=O)O)cc4)C3=O)o2)c1	Not Active		8.3	> 33		
O=C(O)c1ccc(N2C(=O)/C(=C/c3ccc(-c4ccc(O)cc4)s3)C=C2c2ccccc2)cc1			98.8	10	12	
CC1=NN(c2ccc(C(=O)O)cc2)C(=O)/C1=C\c1ccc(-c2ccc([N+](=O)[O-])cc2)s1				6.08	5.24	
COc1ccc(-c2ccc(/C=C3\C=C(c4ccccc4)N(c4ccc(C(=O)O)cc4)C3=O)o2)cc1			96.6	16	25	
CCN(CCO)CCCC(C)Nc1ccnc2cc(Cl)ccc12 (centres undefined)						inactive
COC(=O)c1cccc(CN2C(=O)/C(=C/c3ccc(-c4ccc([N+](=O)[O-])cc4)o3)C=C2c2ccccc2)c1			78.4			
O=C(O)c1ccc(N2C(=O)/C(=C/c3ccc(-c4ccc(Br)cc4)o3)C=C2c2ccccc2)cc1			97.3	19	> 33	
O=C(O)c1ccc(N2C(=O)/C(=C/c3ccc(-c4ccc5nonc5c4)o3)C=C2c2ccccc2)cc1			94.7	12	17	
Cn1cnc(N)c2ncnc1-2						inactive
O=C(O)CCN1C(=O)/C(=C/c2ccc(-c3ccc([N+](=O)[O-])cc3Cl)o2)SC1=S				23	16	
CC1=NN(c2ccc(C(=O)O)cc2)C(=O)C1Cc1ccc(-c2ccc([N+](=O)[O-])cc2)s1 (centres undefined)				> 33	> 33	
NC(=O)c1ccc(-c2ccc(/C=C3\C=C(c4ccccc4)N(Cc4ccc(C(=O)O)cc4)C3=O)o2)cc1			38.9	> 33	> 33	
O=C(O)CCCCN1C(=O)/C(=C/c2ccc(-c3ccc([N+](=O)[O-])cc3)o2)C=C1c1ccccc1			14.6	19.2	> 33	
CC1=NN(c2ccc(C(=O)O)cc2)C(=O)/C1=C\c1ccc(-c2ccccc2P(C)(C)=O)o1	Not Active	Not Active				
CC(=O)c1cccc(-c2ccc(/C=C3\C=C(c4ccccc4)N(Cc4ccc(C(=O)O)cc4)C3=O)o2)c1				14.9	27.4	
CC1=NN(c2ccc(C(=O)O)cc2)C(=O)/C1=C\c1ccc(-c2cc(C)c(C)cc2[N+](=O)[O-])s1				11.9	11.6	
O=C(O)c1ccc(CN2C(=O)/C(=C/c3ccc(-c4ccccc4)o3)C=C2c2ccccc2)cc1			20.6	> 33	> 33	
O=C(O)CCN1C(=O)/C(=C/c2ccc(-c3ccc([N+](=O)[O-])cc3)o2)C=C1c1ccccc1			21.4	17.2	> 100	
O=C(O)c1ccc(N2C(=O)/C(=C/c3ccc(-c4cncnc4)s3)C=C2c2ccccc2)cc1			95.6	> 11	> 11	

Compound	IC50 [1]	IC50 [2]	inhibition at 20 µM [3] [%]	IC50 ([2]; read-out: IC50) [µM]	IC50 ([1]; read-out: IC50) [µM]	inhibition [4]
CC1=NN(c2ccc(C(=O)O)cc2)C(=O)C1Cc1ccc(-c2cccc([N+](=O)[O-])c2)s1 (centres undefined)	Not Active			> 33		
O=C(O)CN1C(=O)/C(=C/c2ccc(-c3ccc([N+](=O)[O-])cc3)o2)C=C1c1ccccc1	Not Active		3.29	31.2		
O=C(O)CCN1C(=O)/C(=C\c2ccc(-c3ccc([N+](=O)[O-])cc3)o2)SC1=S				19	27	
Cc1cc(-c2ccc(CC3C(=O)N(c4ccc(C(=O)O)cc4)N=C3C3CC3)s2)c([N+](=O)[O-])cc1C (centres undefined)				> 33	> 33	
O=C(O)c1ccc(CN2C(=O)/C(=C/c3ccc(-c4ccc([N+](=O)[O-])cc4)o3)C=C2c2ccccc2)cc1			5.88	3.68	2.29	
O=C(O)c1ccc(N2C(=O)/C(=C/c3ccc(-c4ccc(O)cc4)o3)C=C2c2ccccc2)cc1			97.1	> 33	> 33	
CC(=O)Nc1ccc(-c2ccc(/C=C3\C=C(c4ccccc4)N(Cc4ccc(C(=O)O)cc4)C3=O)o2)cc1			5.02	12	12.8	
O=C(O)c1ccc(CN2C(=O)/C(=C/c3ccc(-c4cccc([N+](=O)[O-])c4)o3)C=C2c2ccccc2)cc1			36	10.5	6.14	
O=C(O)c1ccc(N2C(=O)/C(=C/c3ccc(-c4ccc([N+](=O)[O-])cc4)s3)C=C2c2ccccc2)cc1			90.9	30	18	
Cc1cc(-c2ccc(/C=C3\C(=O)N(c4ccc(C(=O)O)cc4)N=C3C3CC3)s2)c(C(F)(F)F)cc1C				> 33	> 33	
Cc1cc(-c2ccc(/C=C3\C(=O)N(c4ccc(C(=O)O)cc4)N=C3C3CC3)s2)c([N+](=O)[O-])cc1C				> 33	22.3	
CCOC(=O)CN1C(=O)/C(=C/c2ccc(-c3ccc([N+](=O)[O-])cc3)o2)C=C1c1ccccc1			79			
COC(=O)CCCCN1C(=O)/C(=C/c2ccc(-c3ccc([N+](=O)[O-])cc3)o2)C=C1c1ccccc1	Not Active	Not Active	16.6			
COC(=O)CCCN1C(=O)/C(=C/c2ccc(-c3ccc([N+](=O)[O-])cc3)o2)C=C1c1ccccc1	Not Active	Not Active	74.5			
COC(=O)CCN1C(=O)/C(=C/c2ccc(-c3ccc([N+](=O)[O-])cc3)o2)C=C1c1ccccc1	Not Active	Not Active	77.1			
O=C(O)c1ccc(N2C(=O)/C(=C/c3ccc(-c4ccc(Cl)cc4)o3)C=C2c2ccccc2)cc1			98.2	17	> 33	
CC1=NN(c2ccc(C(=O)O)cc2)C(=O)/C1=C\c1ccc(-c2cccc([N+](=O)[O-])c2)s1				23	11.2	
CC1=NN(c2ccc(C(=O)O)cc2)C(=O)C1Cc1ccc(-c2cc(C)c(C)cc2[N+](=O)[O-])o1 (centres undefined)				> 33	> 33	
CC1=NN(c2ccc(C(=O)O)cc2)C(=O)/C1=C\c1ccc(-c2cc(C)c(C)cc2C(F)(F)F)o1				31.1	> 33	
CC1=NN(c2ccc(C(=O)O)cc2)C(=O)/C1=C\c1ccc(-c2ccccc2C(F)F)o1				> 33	21.4	

Compound	IC50 [1]	IC50 [2]	inhibition at 20 µM [3] [%]	IC50 ([2]; read-out: IC50) [µM]	IC50 ([1]; read-out: IC50) [µM]	inhibition [4]
O=C1/C(=C/c2ccc(-c3ccc([N+](=O)[O-])cc3)o2)C=C(c2ccccc2)N1Cc1ccc(C(F)(F)F)cc1	Not Active	Not Active	87.7			
CC(=O)Nc1cccc(-c2ccc(/C=C3\C=C(c4ccccc4)N(Cc4ccc(C(=O)O)cc4)C3=O)o2)c1	Not Active	Not Active	20			
CC1=NN(c2ccc(-n3cnnn3)cc2)C(=O)/C1=C\c1ccc(-c2cc(C)c(C)cc2[N+](=O)[O-])o1				> 33	> 33	
O=C(O)CCN1C(=O)/C(=C/c2cc([N+](=O)[O-])ccc2OCc2ccccc2Cl)SC1=S				26	16	
CC1=NN(c2ccc(C(=O)O)cc2)C(=O)/C1=C\c1ccc(-c2cc(C)c(C)cc2[N+](=O)[O-])o1				> 33	> 33	
COC(=O)c1ccc(N2C(=O)/C(=C/c3ccc(-c4ccc([N+](=O)[O-])cc4)o3)C=C2c2ccccc2)cc1	Not Active	Not Active	98.9			
O=C1/C(=C/c2ccc(-c3ccc([N+](=O)[O-])cc3)o2)C=C(c2ccccc2)N1Cc1ccccc1Br			82.5			
CCN(CC)CCCC(C)Nc1ccnc2cc(Cl)ccc12 (centres undefined) [CHLOROQUINE]				28	37	
CC1=NN(c2ccc(C(=O)O)cc2)C(=O)C1Cc1ccc(-c2cc(C)c(C)cc2[N+](=O)[O-])s1 (centres undefined)	Not Active			> 33		
CC1=NN(c2ccccc2)C(=O)/C1=C\c1ccc(-c2cc(C)c(C)cc2[N+](=O)[O-])o1	Not Active			> 33		
O=C(O)c1cccc(CN2C(=O)/C(=C/c3ccc(-c4ccc([N+](=O)[O-])cc4)o3)C=C2c2ccccc2)c1			8.1	21.3	> 33	
O=C(O)CCCN1C(=O)/C(=C/c2ccc(-c3ccc([N+](=O)[O-])cc3)o2)C=C1c1ccccc1	Not Active		5.3	20.8		
O=C1/C(=C/c2ccc(-c3ccc([N+](=O)[O-])cc3)o2)C=C(c2ccccc2)N1Cc1ccccc1	Not Active	Not Active	78.7			
O=C(O)c1ccc(N2C(=O)/C(=C/c3ccc(-c4cc(F)c(F)c(F)c4)s3)C=C2c2ccccc2)cc1			97.6	22	12	
CC(=O)c1ccc(-c2ccc(/C=C3\C=C(c4ccccc4)N(Cc4ccc(C(=O)O)cc4)C3=O)o2)cc1			14.6	16.3	26.9	
O=C(O)c1ccc(N2C(=O)/C(=C/c3ccc(-c4cccnc4)s3)C=C2c2ccccc2)cc1	Not Active		97.3	> 33		
N#Cc1ccc(-c2ccc(/C=C3\C=C(c4ccccc4)N(c4ccc(C(=O)O)cc4)C3=O)s2)cc1	Not Active	Not Active	93.9			
CCCCN1C(=O)/C(=C/c2ccc(-c3ccc([N+](=O)[O-])cc3)o2)C=C1c1ccccc1			77.8			
CS(=O)(=O)c1ccc(-c2ccc(/C=C3\C=C(c4ccccc4)N(Cc4ccc(C(=O)O)cc4)C3=O)o2)cc1	Not Active		53.7	> 33		
